US12448388B2, “PRMT5 inhibitors and uses thereof” (Gilead Sciences, Inc., priority 2023, dated 2025)
Values joined by “and” are separate entries in the source; they are usually repeats but may differ in a detail not shown here. Equal values may be shown once.

How the values were obtained:
[1] = system: BxPC-3 (pancreas, adenocarcinoma; MTAP-Deleted); assay: In vitro cell viability assay (CellTiter-Glo, 9 days), BxPC-3; assay type: cell-based; settings: Homo sapiens, BXPC-3, 216 h, 9-day treatment
Experimental: Some Compounds of the Disclosure were tested in Calu-6 (Vendor: ATCC; Cat #HTB-56; Description: lung, adenocarcinoma), LU99 (Vendor: JCRB; Cat #JCRB0080; Description: lung, giant cell carcinoma), SW780 (Vendor: ATCC; Cat #CRL-2169; Description: bladder, urothelial carcinoma), and BxPC-3 (Vendor: ATCC; Cat #CRL-1687; Description: pancreas, adenocarcinoma) cellular viability assays according to the general protocol. Seeded cells into 96-well plate and incubated overnight. Seeded an additional 10 wells per cell line in an additional 96-well plate for assessing Time Zero luminescence and incubated overnight. To treatment plates, added compounds into each well using Tecan D300e dispenser (nine three-fold dilutions starting at […]) and incubated for 9 days. Time Zero (no compound treatment, luminescence assessed on day 1) and 9-day treatment (luminescence assessed on day 10) plates were assessed using the same CellTiter-Glo® substrate protocol. Thawed CellTiter-Glo® Buffer and lyophilized CellTiter-Glo® substrate and equilibrated to room temperature prior to use. Transferred 100 ml CellTiter-Glo® Buffer into amber bottle containing CellTiter-Glo® substrate to reconstitute the lyophilized enzyme/substrate mixture. For Time Zero and 9-day treatment plates, removed all plating media. Added 100 μl fresh media/well. Added 100 μl CellTiter-Glo® Reagent per well. Mixed contents for 10 min on an orbital shaker to lyse cells. Recorded luminescence with Perkin Elmer Envision 2105 machine. Analyzed the data with GraphPad software.

[2] = Hepatocyte stability assay, rat; assay type: in vitro ADME; settings: Sprague-Dawley Rat
Experimental: (§1) BioreclamationIVT (Baltimore, MD) provided the cryopreserved hepatocytes, hepatocyte thawing (HT) medium, and Krebs-Henseleit buffer (KHB) medium. The stock solution concentration was 1 M in DMSO and was then diluted further in acetonitrile/water (1:1 v/v). All other chemicals were purchased from Sigma-Aldrich (St. Louis, MO) or Thermo Fisher Scientific (Waltham, MA).
(§2) The quench solution used to stop reactions in the hepatocyte incubations was comprised of 100% (v/v) acetonitrile. Internal Standard/Quench (IS/Q) solution used to stop reactions with the positive control also contained 200 nM Labetalol.
(§3) Metabolic Stability in Cryopreserved Hepatocytes: Test compounds, or the positive control metabolic substrate, was incubated in suspensions of cryopreserved hepatocytes at a final concentration of 1 μM. Vials containing cryopreserved hepatocytes were removed from liquid nitrogen and immediately immersed in a 37° C. water bath. The vials were swirled gently until the contents had thawed. They were then immediately emptied into 48 mL of pre-warmed thawing medium in a 50 mL conical tube. Cells remaining in the vial were re-suspended with 1.0 mL of pre-warmed thawing medium and added to the conical tube. The tube was capped and then gently inverted several times to re-suspend the hepatocytes. The cell suspension was centrifuged at 500×g for 10 minutes at room temperature and the supernatant discarded. The cell pellet was loosened by gently swirling the centrifuge tube. Non-supplemented KHB medium was added to obtain the appropriate target cell density. The viabilities of all cell preparations were ≥85%, assessed by Trypan blue dye exclusion.
(§4) For incubations, aliquots of hepatocyte suspension (250 μL containing a cell concentration of 2×10^6 cells/mL) were added to 250 μL of 2 μM substrate (test compound or positive control) in supplemented KHB in duplicate wells in a 24-well plate. Final concentration in the incubations were 1×10^6 cells/mL and 1 μM substrate. A cell-free control incubation (KHB only) was also included. The incubations were carried out with gentle shaking in a 37° C. incubator under a humid atmosphere of 95% air/5% CO2 (v/v). Aliquots (100 μL) were removed after 0, 1, 3, and 6 hours and added to 200 μL quenching solution. The samples were then placed on a shaker for 10 min followed by centrifugation at 3000×g for 20 min. The supernatant was transferred to a new plate and diluted with 100 μL of water to reduce the organic content and then placed on a shaker for 10 mins. Samples were injected and analyzed with methods described below.
(§5) Liquid Chromatography: Quantification of positive control and test compound was performed by analyte/internal standard peak area ratios (PAR) measured on a Thermo Scientific™ Q Exactive™ Hybrid Quadrupole-Orbitrap Mass Spectrometer MS/MS with an electrospray interface operating in positive ion mode. The mass spectrometer was coupled to a Dionex Ultimate® 3000 HPLC system. Samples (10 μL aliquots) were injected with a Leap Technologies HTC PAL autosampler. For positive control, the column used was a Thermo Scientific™ Hypersil GOLD™ HPLC column ([…], 50×2.1 mm). Mobile phase A consisted of 95% (v/v) water, 5% (v/v) acetonitrile, and contained 0.1% (v/v) formic acid (FA). Mobile phase B consisted of 95% (v/v) acetonitrile, 5% (v/v) water, and contained 0.1% (v/v) FA. Elution was achieved, at a flow rate of 0.5 mL/min, by a series of linear gradients: initial condition was 5% B at 0 min, isocratic for 20 seconds; then linear gradient to 95% B over 90 seconds, followed by isocratic for 60 seconds at 95% B, and re-equilibrated to initial conditions over 70 seconds.
(§6) Metabolic stabilities of positive control and test compound were determined by measuring the rates of disappearance of the parent with time by determining the % of parent remaining at time t (Ct) {Obach 1997}.
(§7) Data (% of parent remaining) were plotted on a semi-log scale and fitted using an exponential fit: […]

[3] = Hepatocyte stability assay, dog; assay type: in vitro ADME; settings: Beagle Dog
Experimental: as §1, §2, §3, §4, §5, §6, §7

Structure (SMILES)	GI50 [1] [nM]	Predicted Hepatocyte CL [2]	Predicted Hepatocyte CL [3]
Nc1nc2cc(F)c(C(=O)N3CCC[C@@H]4Oc5cc(C(F)(F)F)ccc5[C@@H]43)cc2n2cncc12 [Ff-104, (4-amino-7-fluoroimidazo[1,5-a]quinoxalin-8-yl)((4aS,9bS)-7-(trifluoromethyl)-3,4,4a,9b-tetrahydrobenzofuro[3,2-b]pyridin-1(2H)-yl)methanone]	–	27.7 mL/min/kg and 20.7 mL/min/kg	6.33 mL/min/kg and 11.2 mL/min/kg
C[C@@H]1CN(C(=O)c2cc3c(cc2F)nc(N)c2cncn23)[C@H]2c3ccc(OC(F)(F)F)cc3C[C@H]2O1 (single isomer, unassigned) [Ff-183]	12	–	–
Nc1nc2cnc(C(=O)N3CCC[C@@H]4Oc5cc(OC(F)(F)F)ccc5[C@@H]43)cc2n2cncc12 [Ff-341, (4-aminoimidazo[1,5-a]pyrido[3,4-e]pyrazin-8-yl)((4aS,9bS)-7-(trifluoromethoxy)-3,4,4a,9b-tetrahydrobenzofuro[3,2-b]pyridin-1(2H)-yl)methanone]	14	16 mL/min/kg	12.3 mL/min/kg
Nc1nc2cnc(C(=O)N3CCC[C@@H]4Oc5cc(C(F)(F)F)cc(F)c5[C@@H]43)cc2n2cncc12 (single isomer, unassigned) [Fg-53]	7	18.7 mL/min/kg	10.2 mL/min/kg
C[C@H]1CN(C(=O)c2cc3c(cc2F)nc(N)c2cncn23)[C@H]2c3ccc(C(F)(F)F)cc3C[C@H]2O1 (single isomer, unassigned) [Ff-81]	–	18.3 mL/min/kg	3.5 mL/min/kg
Cc1ncc2c(N)nc3cnc(C(=O)N4CCC[C@@H]5Oc6cc(OC(F)(F)F)ccc6[C@@H]54)cc3n12 [Ff-340, (4-amino-1-methylimidazo[1,5-a]pyrido[3,4-e]pyrazin-8-yl)((4aS,9bS)-7-(trifluoromethoxy)-3,4,4a,9b-tetrahydrobenzofuro[3,2-b]pyridin-1(2H)-yl)methanone]	23	19.8 mL/min/kg	12 mL/min/kg

Next, values leading:

GI50 [1] [nM]	Predicted Hepatocyte CL [2]	Predicted Hepatocyte CL [3]	Structure (SMILES)
11	15.5 mL/min/kg	12.5 mL/min/kg	Nc1nc2cnc(C(=O)N3CCC[C@@H]4Oc5cc(OC(F)(F)F)cc(F)c5[C@@H]43)cc2n2cncc12 (single isomer, unassigned) [Fg-55]
–	37.2 mL/min/kg	15.3 mL/min/kg	Cc1ncn2c1c(N)nc1cnc(C(=O)N3CCC[C@@H]4Oc5cc(C(F)(F)F)ccc5[C@@H]43)cc12 [Ff-499, (4-amino-3-methylimidazo[1,5-a]pyrido[3,4-e]pyrazin-8-yl)((4aS,9bS)-7-(trifluoromethyl)-3,4,4a,9b-tetrahydrobenzofuro[3,2-b]pyridin-1(2H)-yl)methanone]
7	–	–	Nc1nc2cnc(C(=O)N3CCC[C@@H]4Oc5cc(C(F)(F)F)ccc5[C@@H]43)cc2n2cncc12 [Ff-110, (4-aminoimidazo[1,5-a]pyrido[3,4-e]pyrazin-8-yl)((4aS,9bS)-7-(trifluoromethyl)-3,4,4a,9b-tetrahydrobenzofuro[3,2-b]pyridin-1(2H)-yl)methanone]
8	–	–	Nc1nc2cnc(C(=O)N3CC4(CC4)C[C@@H]4Oc5cc(C(F)(F)F)ccc5[C@@H]43)cc2n2cncc12 [Ff-648, (4-aminoimidazo[1,5-a]pyrido[3,4-e]pyrazin-8-yl)((4aS,9bS)-7-(trifluoromethyl)-4a,9b-dihydro-2H-spiro[benzofuro[3,2-b]pyridine-3,1′-cyclopropan]-1(4H)-yl)methanone]
10	27.8 mL/min/kg	12.3 mL/min/kg	Nc1nc2ccc(C(=O)N3CCC[C@@H]4Oc5cc(C(F)(F)F)ccc5[C@@H]43)cc2n2cncc12 [Ff-111, (4-aminoimidazo[1,5-a]quinoxalin-8-yl)((4aS,9bS)-7-(trifluoromethyl)-3,4,4a,9b-tetrahydrobenzofuro[3,2-b]pyridin-1(2H)-yl)methanone]
